The numbers were not newly measured in patent US20190038640A1, “COMPOSITION, FORMULATIONS AND METHODS OF MAKING AND USING BOTANICALS AND NATURAL COMPOUNDS FOR THE PROMOTION OF HEALTHY BRAIN AGING” (THE BRAIN HEALTH PROJECT, LLC, priority 2013, published 2019), which cites them from elsewhere.

Molecules are shown by their SMILES.

Series [1] relates to alkaline phosphatase activity in the endometrium.
The conditions of series [2]: in vivo.
In the next series the test system is beta amyloid. The conditions noted are these: AD transgenic mice.
For series [3] the following is noted: 0.1-0.2 mg HupA twice daily, active group.
Another series concerns endometrium. The note with it: genistein aglycone 54 mg.

For the compound `O=c1c(-c2ccc(O)cc2)coc2cc(O)ccc12` [daidzein], the “potency of inducing alkaline phosphatase activity relative to estradiol” value in series [1] is listed as “one millionth”.
As for `Cn1c(=O)c2c(ncn2C)n(C)c1=O` [caffeine], in series [2], the half life was 4 to 6 h and the “time to peak blood levels” value is “within one hour”. Besides, in the series with beta amyloid, the “reduction of beta amyloid deposition in the entorhinal cortex” value is listed as 46% and the “reduction of beta amyloid deposition in the hippocampus” value was 40%.
Regarding `C/C=C1\[C@H]2C=C(C)C[C@]1(N)c1ccc(=O)[nH]c1C2` [Huperzine A], the terminal half life entry (0.2 mg pure Huperzine A orally, healthy subjects) is given as “approximately 6 hours”. The optimal plasma level (human, in vivo) was 0.6 ng/mL. Besides, in series [3], the “proportion of patients with a four point improvement on the ADAS-Cog” value is recorded as 56%.
`O=c1c(-c2ccc(O)cc2)coc2cc(O)cc(O)c12` [Genistein, genistein]: in the series on endometrium, the “reduction of endometrial hyperplasia without atypia compared with norethisterone acetate” value is listed as “as successful as”.
